Source: PubChem BioAssay (NCI)
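Interpolation was linear, between the two tested concentrations surrounding the appropriate level; five concentrations were tested over 48 hours in 96-well plates. GI50: concentration for 50% inhibition of growth. TGI: total growth inhibition.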

Assays:
Test in all cases: NCI anticancer screen, dose series, 48 h
OVCAR-5 ovarian = tested on: OVCAR-5 ovarian
OVCAR-3 ovarian = tested on: OVCAR-3 ovarian
SK-MEL-5 melanoma = tested on: SK-MEL-5 melanoma
MALME-3M melanoma = tested on: MALME-3M melanoma
MOLT-4 leukemia = tested on: MOLT-4 leukemia
UO-31 renal = tested on: UO-31 renal
A498 renal = tested on: A498 renal
UACC-62 melanoma = tested on: UACC-62 melanoma
NCI-H522 lung = tested on: NCI-H522 lung
HOP-92 NSCLC = tested on: HOP-92 NSCLC

## Cc1cc(N(CCC#N)CCC#N)ccc1/C=C1N=C(/C=C/c2ccccc2)OC(=O)N\1
OVCAR-5 ovarian
  TGI: > 100 µM
OVCAR-3 ovarian
  TGI: > 100 µM
SK-MEL-5 melanoma
  TGI: > 100 µM
MALME-3M melanoma
  TGI: > 100 µM
MOLT-4 leukemia
  TGI: > 100 µM
UO-31 renal
  TGI: > 100 µM
A498 renal
  TGI: > 100 µM
UACC-62 melanoma
  TGI: > 100 µM
NCI-H522 lung
  TGI: > 100 µM

## C[C@H]1[C@H](C)CC[C@]2(C(=O)NCCNCCN)CC[C@]3(C)C(=CC[C@@H]4[C@@]5(C)CCC(=O)C(C)(C)[C@@H]5CC[C@]43C)[C@H]12
OVCAR-5 ovarian
  GI50: 2.9 µM
  TGI: 11.3 µM
OVCAR-3 ovarian
  GI50: 1800 nM
  TGI: 3.3 µM
SK-MEL-5 melanoma
  GI50: 1.8 µM
  TGI: 3.23 µM
MALME-3M melanoma
  GI50: 1640 nM
  TGI: 3.06 µM
MOLT-4 leukemia
  GI50: 2200 nM
  TGI: 4.73 µM
HOP-92 NSCLC
  GI50: 1730 nM
  TGI: 4.82 µM
UO-31 renal
  GI50: 1530 nM
  TGI: 2.86 µM
A498 renal
  GI50: 11.8 µM
  TGI: 27.2 µM
UACC-62 melanoma
  GI50: 1600 nM
  TGI: 2.96 µM

## Cn1c([N+](=O)[O-])cnc1/C=C1\Oc2cc(Cl)ccc2C1=O
OVCAR-5 ovarian
  GI50: 2.47 µM
  TGI: 7.84 µM
OVCAR-3 ovarian
  GI50: 441 nM
  TGI: 2.31 µM
SK-MEL-5 melanoma
  GI50: 0.289 µM
  TGI: 1.22 µM
MALME-3M melanoma
  GI50: 837 nM
  TGI: 4.13 µM
MOLT-4 leukemia
  GI50: 212 nM
  TGI: 2.32 µM
HOP-92 NSCLC
  GI50: 1320 nM
  TGI: 5.14 µM
UO-31 renal
  GI50: 250 nM
  TGI: 1.3 µM
A498 renal
  GI50: 1.95 µM
  TGI: 9.97 µM
NCI-H522 lung
  GI50: 679 nM
  TGI: 2.36 µM

## COc1ccc(/C=C2/CCc3cc4ccc(OC)cc4[o+]c32)c(O)c1
OVCAR-5 ovarian
  GI50: 17.2 µM
  TGI: 40.3 µM
OVCAR-3 ovarian
  GI50: 2480 nM
  TGI: 6.09 µM
SK-MEL-5 melanoma
  GI50: 14 µM
  TGI: 41.1 µM
MALME-3M melanoma
  GI50: 3080 nM
  TGI: 11.7 µM
MOLT-4 leukemia
  GI50: 3710 nM
  TGI: > 100 µM
HOP-92 NSCLC
  GI50: 11700 nM
  TGI: 29.1 µM
UO-31 renal
  GI50: 2390 nM
  TGI: 8.04 µM
UACC-62 melanoma
  GI50: 5200 nM
  TGI: 19.9 µM
NCI-H522 lung
  GI50: 12700 nM
  TGI: 30.5 µM

## CCOC(=O)/C(=C/c1cccc(OC)c1)N(CC)CC
OVCAR-5 ovarian
  TGI: > 100 µM
OVCAR-3 ovarian
  TGI: > 100 µM
SK-MEL-5 melanoma
  TGI: > 100 µM
MOLT-4 leukemia
  TGI: > 100 µM
HOP-92 NSCLC
  TGI: > 100 µM
UO-31 renal
  TGI: > 100 µM
A498 renal
  TGI: > 100 µM
UACC-62 melanoma
  TGI: > 100 µM
NCI-H522 lung
  TGI: > 100 µM

## O=C(NC12CC3CC(CC(C3)C1)C2)C(=O)c1c[nH]c2ccc(Cl)cc12
OVCAR-5 ovarian
  TGI: > 100 µM
OVCAR-3 ovarian
  TGI: 57.6 µM
SK-MEL-5 melanoma
  TGI: > 100 µM
MALME-3M melanoma
  TGI: > 100 µM
MOLT-4 leukemia
  TGI: > 100 µM
HOP-92 NSCLC
  TGI: 53.2 µM
UO-31 renal
  TGI: > 100 µM
UACC-62 melanoma
  TGI: > 100 µM
NCI-H522 lung
  TGI: > 100 µM

## C=CCSc1nc2ccccc2c(=O)n1Cc1ccco1
OVCAR-5 ovarian
  TGI: > 100 µM
OVCAR-3 ovarian
  TGI: > 100 µM
SK-MEL-5 melanoma
  TGI: > 100 µM
MALME-3M melanoma
  TGI: > 100 µM
HOP-92 NSCLC
  TGI: > 100 µM
UO-31 renal
  TGI: > 100 µM
A498 renal
  TGI: > 100 µM
UACC-62 melanoma
  TGI: > 100 µM
NCI-H522 lung
  TGI: > 100 µM

## O=c1c(Cl)c(Cl)cnn1CCc1ccncc1
OVCAR-5 ovarian
  TGI: 33.6 µM
OVCAR-3 ovarian
  TGI: 31.4 µM
SK-MEL-5 melanoma
  TGI: 30.4 µM
MALME-3M melanoma
  TGI: 39.6 µM
MOLT-4 leukemia
  TGI: > 100 µM
HOP-92 NSCLC
  TGI: 38.5 µM
UO-31 renal
  TGI: 36.2 µM
A498 renal
  TGI: 44.6 µM
UACC-62 melanoma
  TGI: 39.8 µM

## CN(C)Cc1c[nH]c2c(NCCN)c3c(c(NCCN)c12)C(=O)c1ccccc1C3=O
OVCAR-5 ovarian
  GI50: 5.68 µM
  TGI: 25.1 µM
OVCAR-3 ovarian
  GI50: 1740 nM
  TGI: 6.43 µM
SK-MEL-5 melanoma
  GI50: 3.86 µM
  TGI: 9.14 µM
MALME-3M melanoma
  GI50: 3990 nM
  TGI: 18.7 µM
MOLT-4 leukemia
  GI50: 1700 nM
  TGI: > 35.7 µM
HOP-92 NSCLC
  GI50: 1530 nM
  TGI: 5.49 µM
UO-31 renal
  GI50: 8580 nM
  TGI: 26 µM
UACC-62 melanoma
  GI50: 1440 nM
  TGI: 4.18 µM
NCI-H522 lung
  GI50: 1130 nM
  TGI: 3.26 µM

## Cn1c2ccccc2c2c(=O)c3ccccc3[nH]c21
OVCAR-5 ovarian
  GI50: 30.8 µM
  TGI: > 100 µM
OVCAR-3 ovarian
  GI50: > 100000 nM
  TGI: > 100 µM
SK-MEL-5 melanoma
  GI50: 42.9 µM
  TGI: > 100 µM
MOLT-4 leukemia
  GI50: > 100000 nM
  TGI: > 100 µM
UO-31 renal
  GI50: 58200 nM
  TGI: > 100 µM
A498 renal
  GI50: 18 µM
  TGI: 64.8 µM
UACC-62 melanoma
  GI50: 69700 nM
  TGI: > 100 µM
NCI-H522 lung
  GI50: > 100000 nM
  TGI: > 100 µM

## CCN(CC)CCNC(=O)c1cn2ncnc(Oc3ccc(NC(=O)Nc4ccc(Cl)c(C(F)(F)F)c4)c(F)c3)c2c1C
OVCAR-5 ovarian
  GI50: 1.86 µM
  TGI: 3.33 µM
OVCAR-3 ovarian
  GI50: 1770 nM
  TGI: 3.21 µM
SK-MEL-5 melanoma
  GI50: 1.75 µM
  TGI: 3.15 µM
MALME-3M melanoma
  GI50: 1150 nM
  TGI: 2.55 µM
HOP-92 NSCLC
  GI50: 1600 nM
  TGI: 3.56 µM
UO-31 renal
  GI50: 2100 nM
  TGI: 3.63 µM
A498 renal
  GI50: 1.84 µM
  TGI: 3.28 µM
UACC-62 melanoma
  GI50: 1680 nM
  TGI: 3.15 µM
NCI-H522 lung
  GI50: 2030 nM
  TGI: 4.13 µM

## NC(=O)/C=C/C(=O)O
OVCAR-5 ovarian
  TGI: > 5000 µM
SK-MEL-5 melanoma
  TGI: > 5000 µM
MALME-3M melanoma
  TGI: > 5000 µM
MOLT-4 leukemia
  TGI: > 5000 µM
HOP-92 NSCLC
  TGI: > 5000 µM
UO-31 renal
  TGI: > 5000 µM
UACC-62 melanoma
  TGI: > 5000 µM
NCI-H522 lung
  TGI: > 5000 µM

## O=c1c2c3c(sc2n2c(-c4cc(-c5ccccc5)nn4-c4ccccc4)nnc2n1Cc1ccccc1)CCCC3
OVCAR-5 ovarian
  GI50: > 100 µM
  TGI: > 100 µM
OVCAR-3 ovarian
  GI50: > 100000 nM
  TGI: > 100 µM
SK-MEL-5 melanoma
  GI50: > 100 µM
  TGI: > 100 µM
MALME-3M melanoma
  GI50: > 100000 nM
  TGI: > 100 µM
UO-31 renal
  GI50: > 100000 nM
  TGI: > 100 µM
A498 renal
  GI50: > 100 µM
  TGI: > 100 µM
UACC-62 melanoma
  GI50: > 100000 nM
  TGI: > 100 µM

## C=CCOC(=O)CC[N+]1=CCC(c2ccccc2)(c2ccccc2)O1
OVCAR-5 ovarian
  TGI: > 100 µM
OVCAR-3 ovarian
  TGI: > 100 µM
SK-MEL-5 melanoma
  TGI: > 100 µM
MOLT-4 leukemia
  TGI: > 100 µM
HOP-92 NSCLC
  TGI: > 100 µM
UO-31 renal
  TGI: > 100 µM
A498 renal
  TGI: > 100 µM
UACC-62 melanoma
  TGI: > 100 µM
NCI-H522 lung
  TGI: > 100 µM

## CCCCCCCCCCCCCC(=O)OCC1OC(=O)CC1O (stereo not drawn)
OVCAR-5 ovarian
  TGI: > 100 µM
OVCAR-3 ovarian
  TGI: > 100 µM
SK-MEL-5 melanoma
  TGI: > 100 µM
MALME-3M melanoma
  TGI: > 100 µM
MOLT-4 leukemia
  TGI: > 100 µM
HOP-92 NSCLC
  TGI: 40.2 µM
UO-31 renal
  TGI: 81.6 µM
A498 renal
  TGI: > 100 µM
UACC-62 melanoma
  TGI: > 100 µM

## COC(=O)/C(C#N)=C1\CCC(C(=O)OC)N1C (stereo not drawn)
OVCAR-3 ovarian
  TGI: > 100 µM
SK-MEL-5 melanoma
  TGI: > 100 µM
MOLT-4 leukemia
  TGI: > 100 µM
HOP-92 NSCLC
  TGI: > 100 µM
UO-31 renal
  TGI: > 100 µM
A498 renal
  TGI: > 100 µM
UACC-62 melanoma
  TGI: > 100 µM
NCI-H522 lung
  TGI: > 100 µM

## Cc1nnc(N/N=C(/C(=O)C(C#N)c2ccccc2)C(C#N)c2ccccc2)n1N (stereo not drawn)
OVCAR-5 ovarian
  TGI: > 57 µM
OVCAR-3 ovarian
  TGI: 53.3 µM
SK-MEL-5 melanoma
  TGI: 32.7 µM
MALME-3M melanoma
  TGI: 9.29 µM
MOLT-4 leukemia
  TGI: 9.28 µM
HOP-92 NSCLC
  TGI: > 100 µM
UO-31 renal
  TGI: > 56.5 µM
UACC-62 melanoma
  TGI: > 62.6 µM
NCI-H522 lung
  TGI: 56.1 µM
